Data taken from patent US9487489B2, “Halogen-substituted pyrazole derivatives as pest-control agents” (BAYER CROPSCIENCE AKTIENGESELLSCHAFT, priority 2013, dated 2016).

How the values were obtained:
[1] = tested on: engorged adult female cattle ticks (Boophilus microplus); test: Boophilus microplus injection test (BOOPMI Inj); format: in vivo; conditions: application rate 20 μg/animal; injection into abdomen; assessed after 7 days
Description: C. Boophilus microplus-injection Test (BOOPMI Inj)
(§1) Solvent: dimethyl sulphoxide
To produce a suitable preparation of active compound, 10 mg of active compound are mixed with 0.5 ml of solvent, and the concentrate is diluted with solvent to the desired concentration.
1 μl of the active compound solution is injected into the abdomen of 5 engorged adult female cattle ticks (Boophilus microplus). The animals are transferred into dishes and kept in a climate-controlled room.
The activity is assessed after 7 days by laying of fertile eggs. Eggs whose fertility is not visible from the outside are stored in a climate-controlled cabinet until the larvae hatch after about 42 days. An efficacy of 100% means that none of the ticks has laid any fertile eggs; 0% means that all eggs are fertile.

[2] = tested on: adult cat fleas (Ctenocephalides felis); test: Ctenocephalides felis oral test (CTECFE); format: in vivo; conditions: application rate 100 ppm in citrated cattle blood; after 2 days
Description: D. Ctenocephalides felis-oral Test (CTECFE)
as §1
To produce a suitable preparation of active compound, 10 mg of active compound are mixed with 0.5 ml of dimethyl sulphoxide. Dilution with citrated cattle blood gives the desired concentration.
About 20 unfed adult cat fleas (Ctenocephalides felis) are placed into a chamber which is closed at the top and bottom with gauze. A metal cylinder whose bottom end is closed with a parafilm is placed onto the chamber. The cylinder contains the blood/active ingredient preparation, which can be imbibed by the fleas through the parafilm membrane.
After 2 days, the kill in % is determined 100% means that all of the fleas have been killed; 0% means that none of the fleas have been killed.

[3] = tested on: L1 larvae of the Australian sheep blowfly (Lucilia cuprina); test: Lucilia cuprina test (LUCICU); format: in vivo; conditions: application rate 100 ppm; after 2 days
Description: E. Lucilia cuprina Test (LUCICU)
as §1
(§2) To produce a suitable preparation of active compound, 10 mg of active compound are mixed with 0.5 ml of dimethyl sulphoxide, and the concentrate is diluted with water to the desired concentration.
About 20 L1 larvae of the Australian sheep blowfly (Lucilia cuprina) are transferred into a test vessel containing minced horsemeat and the active compound preparation of the desired concentration.
After 2 days, the kill in % is determined 100% means that all of the larvae have been killed; 0% means that none of the larvae have been killed.

[4] = tested on: adult houseflies (Musca domestica); test: Musca domestica test (MUSCDO); format: in vivo; conditions: application rate 100 ppm; after 2 days
Description: F. Musca domestica Test (MUSCDO)
as §1, §2
Vessels containing a sponge treated with sugar solution and the active compound preparation of the desired concentration are populated with 10 adult houseflies (Musca domestica).
After 2 days, the kill in % is determined. 100% means that all of the flies have been killed; 0% means that none of the flies have been killed.

[5] = tested on: larvae of the mustard beetle (Phaedon cochleariae); test: Phaedon cochleariae spray test (PHAECO); format: in vivo; conditions: Chinese cabbage leaf discs, after 7 days
In short: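 Compound dissolved in acetone/dimethylformamide with alkylaryl polyglycol ether emulsifier, made up in water containing 1000 ppm emulsifier, then diluted to test concentrations and sprayed against mustard beetle larvae. Efficacy (% larvae killed) scored after 7 days.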

[6] = tested on: caterpillars of the armyworm (Spodoptera frugiperda); test: Spodoptera frugiperda spray test (SPODFR); format: in vivo; conditions: maize leaf discs, after 7 days
In short: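 Maize leaf discs sprayed with compound in acetone/DMF with alkylaryl polyglycol ether emulsifier (1000 ppm) in water, dried, then infested with armyworm caterpillars. Mortality (%) scored after 7 days; 100% = all caterpillars killed, 0% = none killed.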

[7] = tested on: greenhouse red spider mite (Tetranychus urticae); test: Tetranychus urticae spray test, OP-resistant (TETRUR); format: in vivo; conditions: bean leaf discs, after 6 days
In short: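 Bean leaf discs carrying all stages of OP-resistant Tetranychus urticae were sprayed with compound formulated in acetone/dimethylformamide and diluted in water with 1000 ppm alkylaryl polyglycol ether emulsifier. Mortality (% efficacy, 100% = all mites killed) scored after 6 days.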

[8] = tested on: adult dog ticks (Rhipicephalus sanguineus); test: Rhipicephalus sanguineus in vitro contact test with adult brown dog ticks (T2); conditions: after 48 h
In short: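 Acetone solutions coated onto test tube walls and floor, giving 5 μg/cm^2 at 900 ppm. Five to ten adult ticks held per tube in the dark at room temperature for 48 h, then heated at 45-50° C for up to 5 min; efficacy is the percentage of dead or moribund ticks unable to climb away.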

[9] = tested on: adult cat fleas (Ctenocephalides felis); test: Ctenocephalides felis in vitro contact test with adult cat fleas (T1); conditions: after 48 h
In short: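 Test compound was dissolved in acetone p.a. (9 mg per 1 ml) and diluted as needed. 250 μl was spread evenly over the inner walls and floor of a 25 ml test tube by rotating on an orbital shaker for 2 h at 30 rpm. Once the solvent evaporated, 5-10 adult Ctenocephalides felis were added. Tubes were capped with a perforated plastic lid and kept horizontal at room temperature and ambient humidity.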

[10] = logP determination by HPLC on a reversed-phase column (C18), EEC Directive 79/831 Annex V.A8; format: physicochemical
In short: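 Retention on a C18 reversed-phase column (Zorbax Eclipse Plus, 1.8 micron) was used, eluting with acetonitrile/water, each containing formic acid. The gradient ran from 10% to 95% acetonitrile over 4.25 min, then held 1.25 min, at 55° C and 2.0 ml/min, with MS detection.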

[11] = HPLC on reversed-phase column (C18), acetonitrile/water with formic acid, EEC Directive 79/831 Annex V.A8

SMILES	efficacy (laying of fertile eggs) [1]	efficacy (kill in %) [2]	efficacy (kill in %) [3]	efficacy (kill in %) [4]	efficacy in % ([5]; application rate 500 g/ha)	efficacy in % ([6]; application rate 500 g/ha)	efficacy in % ([7]; application rate 500 g/ha)	efficacy (dead or moribund ticks) ([8]; application rate 1 μg/cm^2)	efficacy (dead or moribund fleas) ([9]; application rate 1 μg/cm^2)	efficacy (dead or moribund fleas) ([9]; application rate 5 μg/cm^2)	efficacy in % ([6]; application rate 100 g/ha)	efficacy (dead or moribund ticks) ([8]; application rate 5 μg/cm^2)	efficacy in % ([7]; application rate 100 g/ha)	logP [10, 11]	efficacy in % ([5]; application rate 100 g/ha)	logP ([10]; HPLC, reversed-phase C18, acetonitrile (0.1% formic acid)/water (0.09% formic acid) gradient)
Cn1nc(C(F)(F)C(F)(F)F)c(C(F)(F)F)c1-n1cc(-c2cc(Cl)cc(C(=O)NC3CC3)c2)cn1 [Ic-44]	100%	100%	100%	80%	100%	100%	80%	–	–	–	–	–	–	–	–	–
Cn1nc(C(F)(F)C(F)(F)F)c(C(F)(F)F)c1-n1cc(-c2cc(Cl)cc(C(=O)NC3(C#N)CC3)c2)cn1 [Ic-43]	100%	100%	100%	100%	100%	100%	–	100%	–	–	–	–	–	–	–	–
Cn1nc(C(F)(F)C(F)(F)F)c(C(F)(F)F)c1-n1cc(-c2cccc(C(=O)NC3CC3)c2F)cn1 [Ic-33]	100%	100%	100%	100%	100%	83%	–	–	–	–	–	–	–	–	–	–
CC(NC(=O)c1cc(-c2cnn(-c3c(C(F)(F)F)c(C(F)(F)C(F)(F)F)nn3C)c2)ccc1Cl)C(N)=O (stereo not drawn) [Ic-154]	100%	100%	100%	90%	100%	100%	100%	–	100%	80%	–	–	–	–	–	–
Cn1nc(C(F)(F)C(F)(F)F)c(C(F)(F)F)c1-n1cc(-c2cc(C(=O)NC3CC3)cc(F)c2F)cn1 [Ic-61]	100%	100%	100%	80%	100%	–	–	–	–	–	100%	80%	–	–	–	–
Cn1nc(C(F)(F)C(F)(F)F)c(C(F)(F)F)c1-n1cc(-c2cc(C(=O)NC3CC3)ccc2Cl)cn1 [Ic-46]	100%	100%	100%	100%	100%	100%	–	100%	–	–	–	–	–	–	–	–
Cn1nc(C(F)(F)C(F)(F)F)c(C(F)(F)F)c1-n1cc(-c2cc(C(=O)NC3(C#N)CC3)cc(F)c2F)cn1 [Ic-64]	100%	100%	100%	80%	100%	–	–	–	–	–	100%	–	100%	–	–	–
Cn1nc(C(F)(F)C(F)(F)F)c(C(F)(F)F)c1-n1cc(-c2cc(C(=O)NC3(C#N)CC3)cc(C(F)(F)F)c2)cn1 [Ic-60]	100%	100%	100%	100%	100%	100%	–	–	–	–	–	–	–	–	–	–
Cc1nn(-c2c(C(F)(F)F)c(C(F)(F)C(F)(F)F)nn2C)cc1-c1ccc(Cl)c(C(=O)NC2CC2)c1 [Ic-12]	100%	100%	100%	100%	–	–	–	–	100%	100%	100%	–	–	3.97	100%	–
Cn1nc(C(F)(F)C(F)(F)F)c(C(F)(F)F)c1-n1cc(-c2ccc(Cl)c(C(=O)Nc3ccccn3)c2)cn1 [Ic-140]	100%	100%	100%	90%	100%	100%	100%	–	100%	100%	–	–	–	–	–	–
Cn1nc(C(F)(F)C(F)(F)F)c(C(F)(F)F)c1-n1cc(-c2ccc(Cl)c(C(=O)Nc3ccccc3)c2)cn1 [Ic-136]	100%	100%	100%	90%	100%	100%	100%	–	–	–	–	–	–	–	–	–
Cn1nc(C(F)(F)C(F)(F)F)c(C(F)(F)F)c1-n1cc(-c2cc(F)cc(C(=O)NC3CC3)c2)cn1 [Ic-39]	100%	100%	100%	100%	100%	100%	–	–	–	–	100%	–	100%	–	–	–
Cn1nc(C(F)(F)C(F)(F)F)c(C(F)(F)F)c1-n1cc(-c2ccnc(C(=O)NC3(C#N)CC3)c2)cn1 [Ic-76]	100%	100%	100%	80%	100%	100%	80%	–	–	–	–	–	–	–	–	–
N#CC1(NC(=O)c2cc(-c3cnn(-c4c(C(F)(F)F)c(C(F)(F)C(F)(F)F)nn4-c4ccccc4)c3)ccc2Cl)CC1 [Ic-7]	100%	100%	100%	100%	–	–	–	–	–	–	100%	–	–	4.43	100%	–
O=C(NC1CC1)c1cc(-c2cnn(-c3c(C(F)(F)F)c(C(F)(F)C(F)(F)F)nn3-c3ccccc3)c2)ccc1Cl [Ic-6]	100%	100%	100%	90%	–	–	–	–	–	–	100%	–	–	4.54	100%	–
Cn1nc(C(F)(F)C(F)(F)F)c(C(F)(F)F)c1-n1cc(-c2cc(F)cc(C(=O)NC3(C#N)CC3)c2)cn1 [Ic-38]	100%	100%	100%	100%	100%	100%	–	–	–	–	–	–	–	–	–	–
Cn1nc(C(F)(F)C(F)(F)F)c(C(F)(F)F)c1-n1ccc(-c2ccc(Cl)c(C(=O)NC3(C#N)CC3)c2)n1 [Id-1]	100%	100%	100%	100%	–	–	–	–	–	–	100%	–	–	–	100%	3.87
COc1cc(C(=O)NC2CC2)cc(-c2cnn(-c3c(C(F)(F)F)c(C(F)(F)C(F)(F)F)nn3C)c2)c1 [Ic-62]	100%	95%	100%	100%	100%	100%	–	–	–	–	–	–	–	–	–	–
